# From publication PMC7212882, “Efficacy and pharmacodynamics of niraparib in BRCA-mutant and wild-type intracranial triple-negative breast cancer murine models” (Neuro-oncology Advances, 2019)
# Where two headings read alike, the source gives them in different places. Marks after values point to notes of the source that are not given here.
# Assays:
# [1] = tested on: MDA-MB-231Br; details: intracranial MDA-MB-231Br
# Procedure: (§1) All animal studies protocols were approved by the University of North Carolina (UNC), Chapel Hill Institutional Animal Care and Use Committee, executed by the UNC Animal Studies Core, and performed as described previously.[23],[27] For IC injections, cells were harvested in log-phase growth and suspended in Hank's Balanced Salt Solution + 0.5% FBS. Eight- to 10-week Foxn1 nu/nu female mice (UNC Animal Studies Core) were implanted with 200 000 cells/5 µl of suspension through stereotactic IC injection in the right striatum. Animal weights were collected from injection to death 3 times weekly. To determine tumor volumes, mice were anesthetized, injected intraperitoneally with D-luciferin dissolved in phosphate-buffered saline (150 mg/kg; Caliper Life Sciences, Hopkinton, MA), and then imaged by IVIS Lumina camera (Caliper Life Sciences). Images were analyzed with Living Image 4.0 software (Caliper Life Sciences). All values were corrected for background and recorded as photons/s.
# (§2) For efficacy studies, mice were given a daily oral gavage of 50 mg/kg niraparib or vehicle (0.5% methylcellulose). To determine median survival, animals were sacrificed when weights decreased […] of an individual mouse’s maximum weight. For pharmacodynamic and pharmacokinetic studies, mice were grouped and treated as in efficacy studies for 2 weeks. At 4 h from last niraparib dose, IC tumor, peri-tumoral tissue (2 mm around the perimeter of a tumor), and contralateral brain were dissected, snap frozen, and stored frozen for each mouse and stored at –80°C.
# (§3) The Kaplan–Meier method and log-rank test were used to estimate and compare median survival between treatment groups.
# (§4) Both fold change in tumor volumes and weight over time were determined relative to treatment start date. Linear mixed models, with a random intercept and slope, were used to evaluate changes over time, overall and between groups (SAS, v9.3)
# [2] = tested on: MDA-MB-436
# Procedure: as §1, §2, §3, §4
# [3] = tested on: SUM149
# Procedure: as §1, §2, §3, §4
# [4] = tested on: PARP; details: in vivo, niraparib daily 2 weeks
# Procedure: as §2, with “For efficacy studies, treatment started at day 7 for MDA-MB-231Br, day 14 for SUM149, and day 14 for MDA-MB-436. […] For efficacy” for “For efficacy”
# (§5) 25–50 mg of tumor tissue were homogenized per protocol, and lysates were used to quantify PAR (pg/ml) using a chemiluminescent enzyme-linked immunosorbent assay (ELISA) in comparison to provided standards (Trevigen, HT PARP in vivo Pharmacodynamic Assay II, #4520-096-K). PAR values were normalized across models to 100 µg of lysate.
# (§6) A 2-way ANOVA with Tukey’s test and P-value correction for multiple comparisons was used to compare tissue levels of niraparib (pharmacokinetics) or PAR (pharmacodynamics). A t-test was used to compare PAR levels in MDA-MB-436 cells treated in vitro (GraphPad Prism, v7.04)
# [5] = tested on: PARP; details: MDA-MB-436 cells in vitro; vehicle 3821.1; P = .034
# Procedure: as §5, §6
# [6] = mouse, in vivo
# [7] = tested on: PARP1/2; details: read-out: in vitro IC50s; dual PARP1/2 inhibitor; cited from earlier work
# [8] = tested on: cells with BRCA1/BRCA2 deficiencies; details: read-out: in vitro CC50; cited from earlier work
# [9] = tested on: SUM149; details: read-out: 5–7 day CC50; cited from earlier work
# [10] = tested on: MDA-MB-436; details: read-out: 5–7 day CC50; cited from earlier work
# [11] = tested on: MDA-MB-436; details: subcutaneous flank model, female nude mice, 100 mg/kg once daily or 50 mg/kg twice daily; cited from earlier work
smiles,measurement,setting,value
"NC(=O)c1cccc2cn(-c3ccc([C@@H]4CCCNC4)cc3)nc12 [niraparib, 2-{4-[(3S)-piperidin-3-yl]phenyl}-2H-indazole-7-carboxamide]",median survival,"[1]; 50 mg/kg daily oral gavage, P = .21 vs vehicle (23 days)",22 days
same,weight changes vs vehicle,"[1]; 50 mg/kg daily, P = .21",did not differ significantly
same,tumor volumes measured by luciferase activity vs vehicle,"[1]; 50 mg/kg daily, P = .7",did not differ significantly
same,body weight,"[2]; intracranial MDA-MB-436, 50 mg/kg daily, control mice lost weight, P < .0001",maintained normal weight
same,mice alive at day 70,"[2]; intracranial MDA-MB-436, 50 mg/kg daily, day 70, end of study",100%
same,suppression of tumor bioluminescence,"[2]; intracranial MDA-MB-436, 50 mg/kg daily, for the extent of the experiment",greater than 90%
same,increase in median survival,"[2]; intracranial MDA-MB-436, 50 mg/kg daily, study ended day 70, untreated median 50 days, P < .0001",at least 20 days
same,increase over untreated median survival,"[2]; intracranial MDA-MB-436, 50 mg/kg daily, untreated median 50 days",more than 40%
same,average tumor bioluminescence,"[2]; intracranial MDA-MB-436, day 35, after 3 weeks of treatment, control 1.15 × 10^9, P < .0001",9.56 × 10^7 photons/s
same,median survival,"[3]; intracranial SUM149, 50 mg/kg daily oral gavage, P = .30 vs vehicle (33 days)",34 days
same,tumor volumes measured by luciferase activity vs vehicle,"[3]; intracranial SUM149, 50 mg/kg daily, P = .06",did not differ significantly
same,weight changes vs vehicle,"[3]; intracranial SUM149, 50 mg/kg daily, P = .14",did not differ significantly
same,"PAR levels, mean","[4]; intracranial MDA-MB-436 tumors, vehicle 195.2, P = .99",145.7 picogram PAR per microgram tissue
same,"PAR levels, mean","[4]; intracranial SUM149 tumors, vehicle 4054.5, P = .0027",433.1* picogram PAR per microgram tissue
same,"PAR levels, mean",[5],248.2* picogram PAR per microgram tissue
same,tolerability,[6],well tolerated
same,CC50,[8],10 to 100 nM
same,CC50,[9],24 nM
same,CC50,[10],18 nM
same,in vivo tumor growth,[11],inhibited
